# According to PubChem BioAssay AID1996:
# Details: buffer; pH 7.4; 200.0 µM
row,SMILES,solubility kinetic [µg/mL]
1,CCNc1nc(NCC)nc(NC(N)=S)n1,9
2,CN1C(=O)NC(c2ccc([N+](=O)[O-])cc2)C2=C1CC(C)(C)CC2=O (stereo unspecified),> 49.4
3,CC(C)N1CCN(Cc2cc3ccccc3[nH]2)CC1CCO (stereo unspecified),> 45.2
4,CCc1cc2c(Nc3ccccc3O)nc(C)nc2s1.Cl,< 0.2
5,CCCCn1c(SCC(=O)N2CCOCC2)nc2ccccc2c1=O,> 54.2
6,S=c1[nH]c2ccccc2n1Cc1ccccc1,4.8
7,Cc1ccc(NC(=O)Cc2ccc(Cl)cc2)nc1,28.5
8,CNC(=O)CN1C(=O)NC2(CCc3ccccc3C2)C1=O (stereo unspecified),> 43.1
9,CCOC(=O)c1ccc(Nc2cc(C)nc(-c3ccccc3)n2)cc1,< 0.2
10,COc1ccc(NCC(=O)Nc2cccc(S(=O)(=O)N3CCCC3)c2)cc1Cl,13.6
11,C/C=C/C(=O)OCc1csc(CC(=O)Nc2ccccc2C)n1,> 49.6
12,CS(=O)(=O)c1ccccc1C(=O)Nc1nc2ccccc2[nH]1,> 47.3
13,CC(=O)Nc1ccc(NCc2ccc(C)s2)cc1,> 39.1
14,O=C(O)c1cccc(NC(=S)NCc2ccccc2)c1,> 43
15,Cc1ccc(NC(=O)C2=CN3CCS(=O)(=O)N=C3C=C2)cc1,12.7
16,CCC(=O)Nc1ccc(NC(=O)c2oc3ccccc3c2C)cc1,1.2
17,Cc1ccc(NC(=O)c2ccc3nc[nH]c3c2)nc1,> 37.8
18,CCOC(=O)c1cnc(COc2ccc(OC)cc2)[nH]c1=O,44.7
19,CCOCCn1c2ccccc2c2nc3ccccc3nc21,4.1
20,CNC(=S)Nc1cccc([N+](=O)[O-])c1,> 31.7
21,COc1cc(S(=O)(=O)NCc2ccc3c(c2)OCO3)ccc1F,14.8
22,Cc1csc(SCC(=O)Nc2cc(C(N)=O)cc(C(N)=O)c2)n1,51.6

row,SMILES,solubility kinetic [µg/mL]
1,CSCc1ccc(C(=O)Nc2ccc(C(N)=O)cc2)cc1,0.8
2,O=C(O)C1CCCN(S(=O)(=O)Cc2ccccc2)C1 (stereo unspecified),37.7
3,COCCNc1ccc(N2C(=O)CCCC2=O)cc1[N+](=O)[O-],45.8
4,Cc1ccc(S(=O)(=O)N2CCCCC2)cc1NC(=O)C1CCC1,16.4
5,CC(C)(C)SCCNC(=O)CN1C(=O)c2cccc3cccc1c23,2.8
6,COc1cc(OC)cc(C(=O)Nc2ccc(CN3CCCCC3)cc2)c1,49.2
7,O=C(COC(=O)c1cccc(F)c1)NC1CC1,> 35.6
8,Cc1ccccc1CC(=O)N1CCN(C(=O)c2ccco2)CC1,> 46.9
9,CC(=O)NC(CSc1cc(C)nc2ccc(Br)cc12)C(=O)O (stereo unspecified),57.2
10,CCSc1ccccc1C(=O)N=C1NC(=O)CC2C(=O)NCCN12 (stereo unspecified),16.9
11,COc1ccc(-c2cn(-c3ccc(C)cc3C)c(=S)[nH]2)cc1OC,16.8
12,CC(=O)Nc1ccc(OS(=O)(=O)c2ccccc2C)cc1,35.2
13,O=C(CC1SC(N2CCOCC2)=NC1=O)Nc1cccc(C(F)(F)F)c1 (stereo unspecified),27.8
14,C=CCn1c(O)c(/C=N/NC(=O)c2ccncc2)c(=O)[nH]c1=O,> 47.3
15,Cc1onc(NC(=O)CSCC(=O)O)c1Br,> 46.4
16,O=Cc1c(F)cccc1N1CCCC1,15.3
17,CCC(=O)N/C(=N/c1nc(C)cc(C)n1)Nc1ccccc1,13
18,O=C(COc1ccccc1F)OCC(=O)c1ccc([N+](=O)[O-])cc1,46.8
19,O=S(=O)(c1ccc2ncn(O)c2c1)N1CCOCC1,> 42.5
20,CCNC(=O)C12CCC(C)(c3nc4cc(C)c(C)cc4nc31)C2(C)C (stereo unspecified),47.4
21,COc1ccccc1CNC(=O)C1(C)Oc2cccnc2NC1=O (stereo unspecified),> 49.1
22,Cc1cc(C(=O)NC(C)C2CCCO2)c(C)o1 (stereo unspecified),> 35.6

row,SMILES,solubility kinetic [µg/mL]
1,CCCCSc1nc(O)cc(=O)n1CC,33.4
2,Cc1ccnc(SC2CC(=O)N(c3ccc(F)cc3)C2=O)n1 (stereo unspecified),38
3,COc1cc(OC)c(C(=O)O/N=C(\N)c2ccccn2)cc1OC,> 49.7
4,Cc1nc([N+](=O)[O-])c(C(=O)OCc2ccc(C#N)cc2)n1C,17.7
5,CCN(CC)S(=O)(=O)c1cccc(C(=O)NC2=NCCS2)c1,34.8
6,O=[N+]([O-])c1cc(Cl)ccc1N1CCOCC1,24.4
7,Cc1ccsc1CNC1CCCCC1,24.1
8,CSc1nc(=S)n(-c2cc(C)ccc2C)c(C)c1C(C)=O,> 47.8
9,CS(=O)(=O)N(CC(=O)NCCSC1CCCCC1)c1ccccc1,40.5
10,OCCN1CCOCCOc2ccccc2OCCOCC1,> 46.7
11,O=c1c(Cc2c(F)cccc2Cl)c(O)ccn1C1CCCCCC1,< 0.7
12,OCCN1CNC(=S)NC1,22.8
13,COc1ccc(C2(C)NC(=O)N(CC(=O)NCC(=O)Nc3ccc(F)c(F)c3F)C2=O)cc1OC (stereo unspecified),0.5
14,Cc1ccc(N2CC(c3nc4ccccc4n3C)CC2=O)cc1 (stereo unspecified),> 45.8
15,O=C(COC(=O)CNC(=O)c1ccc(F)cc1)NC1CCCc2ccccc21 (stereo unspecified),> 57.7
16,COc1cc(CC(=O)OCC(=O)NCc2cccs2)cc(OC)c1OC,> 56.9
17,CCN(CC(=O)NCc1ccc(F)cc1)CC(=O)NC1CCCC1,> 50.3
18,CCc1ccccc1NC(=O)c1cc(-c2ccc(OC)cc2)on1,< 0.3
19,COc1ccc(-c2nc(N)c(C#N)c(-c3cccnc3)c2C)cc1,2.8
20,Cc1ccc(C(=O)NCCCNC(=O)c2ccco2)cc1,> 42.9
21,COc1ccc(NC(=O)/C=C/c2cc(OC)c(OC)c(OC)c2)cn1,0.5
22,COc1ccc(NC(=O)CSc2ccc3c(c2)OCCO3)cc1,46.1

row,SMILES,solubility kinetic [µg/mL]
1,Cc1cccc(Cn2nc(C(C)(C)C)cc2C(=O)N2CCOCC2)c1,> 51.2
2,O=C1NS(=O)c2cc([N+](=O)[O-])cc([N+](=O)[O-])c21 (stereo unspecified),> 38.6
3,O=C(NCC1CCCCC1)c1cc2ccccc2cc1O,9.7
4,COc1ccc(CCC(=O)OCC(=O)Nc2ccccc2)cc1,> 47
5,N#C/C(=C\c1cccnc1)c1ccccn1,> 31.1
6,Cc1ccc(CC(=O)NCCCn2ccnc2)cc1,> 38.6
7,COc1ccc(C)c(NC(=O)C2CC(=O)NC3=C2C(=O)CCC3)c1 (stereo unspecified),47.5
8,CC(=O)c1ccccc1NS(=O)(=O)c1ccc2c(c1)CC(=O)N2,29.9
9,Cc1ccc(C)c(NC(=O)CCN2C(=O)c3ccccc3C2=O)c1,1.2
10,Nn1c(-c2ccccc2)nc2ccccc2c1=O,> 35.6
11,Nc1ccc(N2CCCC2)c(S(=O)(=O)Nc2cccc(C(F)(F)F)c2)c1,25.8
12,Cc1ccccc1-c1nc2cc(Cl)ccc2c(=O)o1,< 0.6
13,COc1ccc(/C=C2\N=C(C)OC2=O)cc1OC(C)=O,> 41.3
14,CCOC(=O)c1sc(NC(=O)OC)c(C(=O)OC)c1C,< 0.6
15,Cc1noc(C)c1COC(=O)CNC(=O)c1cccc(F)c1,45.9
16,O=C(NCc1csc(-c2cccs2)n1)C1CCCCC1,3.9
17,CCC(=O)Nc1ccc(S(=O)(=O)Nc2nccs2)cc1,45.5
18,Cc1cnc(NC(=O)/C=C/c2ccc(Br)o2)s1,0.8
19,NS(=O)(=O)c1cnccc1Nc1cccc(Br)c1,36.3
20,O=C(Nc1ccc(F)cc1)Nc1ccc2c(c1)OCO2,0.7
